Laboratory results from US20250043285A1, “Mammalian ATG8 Proteins and ATG9A Direct Sealing of Autophagosomal Membranes” (UNM Rainforest Innovations, priority 2023, published 2025).
Entries after “also recorded” stand apart in the source; their conditions may differ.

Assays:
[1] = tested on: HeLa cells stably expressing HT-LC3B (LC3B^+ membranes including autophagosomes); assay: HT-LC3B MIL/MPL assay by high content microscopy (autophagic membrane sealing); format: cell-based
Method: HCM: MIL/MPL assay for assessment of autophagic membrane sealing. HaloTag-LC3B stable cell lines were seeded in 96 well plate at the density of 8,000 cells/well. After 18-24 h cells were induced for autophagy (EBSS for 90 min) or mitophagy (20 μM CCCP for 6 h). After induction, cells were incubated with Membrane Impermeant Ligand (MIL: Alexa Fluor-660 663Ex/690Em, 1 μM, Promega, G8471) prepared in 1×MAS buffer (220 mM mannitol, 70 mM sucrose, 10 mM KH2PO4, 5 mM MgCl2, 2 mM HEPES, 1 mM EGTA, from Sigma) containing XF-PMP (Agilent; 102504-100, 1.5 nM for Huh7 and 4 nM for HeLa cells) at 37° C. for 15 min. Cells were washed twice with 1×PBS and fixed with 4% paraformaldehyde (PFA, Sigma) in PBS for 5 min at RT. Cells were again washed twice with 1×PBS and incubated with Membrane-Permeant Ligand (MPL: TMR 5 μM, 555Ex/585Em, Promega, G8251) for 30 min at RT. Cells were washed once with 1×PBS and stained with Hoechst 33342 (Thermo Scientific, H3570, 1:1000) for 10 min at RT. Cells were washed twice and plate was scanned by High Content Microscopy (HCM) for automated image acquisition and quantification, iDEV software (Thermo) in 96-well plates^5. To test the role of mATG8s in autophagosome closure, we used the previously described strategy^41 employing stable cell lines expressing HT-LC3B, used to assess autophagosomal closure^41, 42, 45. We adapted this assay for high content microscopy (HCM) to allow unbiased operator-independent image collection, object identification and quantification, as previously established^30, 75 (FIG. 1C). […] The plates were scanned to quantify MPL^+ (sealed) and MIL^+ (unsealed) autophagosomes and any additional LC3B^+ structures, and data (quantitative HCM) presented as the number of MIL^+ or MPL^+ profiles/cell and their ratios (MIL/MPL) (FIG. 1D). MIL^+MPL^+ profiles were also observed but represented a very small fraction (<5%) and were not differentiated in quantifications.

[2] = tested on: Huh7^WT and Huh7^ATG9AKO cells; assay: Western blot of Parkin and COX-II under CCCP-induced mitophagy; format: cell-based; conditions: BafA1 100 nM
Description: 13A. Schematic representation of proximity biotinylation proteomics (process stages) for LC MS/MS identification of APEX2-ATG9A partners in cells subjected to EBSS-induced autophagy and CCCP-induced mitophagy. 13B, List of ATG9A's key ESCRTs interactors and their peptide counts. 13C, HeLa^WT and HeLa^ATG9AKO cell line stably expressing YFP-Parkin were induced for mitophagy by CCCP or Olygomycin A and Antimycin A (OA). HCM was used to quantify mitophagy by determining remaining mtDNA puncta per cell. Blue squares, HeLa^WT stably expressing YFP-Parkin; red squares, HeLa^ATG9AKO stably expressing YFP-Parkin. 13D, HCM images illustrating mtDNA (red mask) in HeLa^WT and HeLa^ATG9AKO cells stably expressing YFP-Parkin. 13E, Western blot analysis of Huh7^WT and Huh7^ATG9AKO cells, under control conditions (full medium) or subjected to CCCP-induced mitophagy. […] 13G, Western blot analysis of LC3B lipidation in control and CCCP-induced mitophagy condition in Huh7^ATG9AWT or Huh7^ATG9AKO. 13H, Quantification of LC3B dots in Huh7^WT and Huh7^ATG9AKO cells under control conditions or subjected to CCCP-induced mitophagy. […] 13J,13K Quantification of p62 and NDP52 levels in control and proteinase K-treated samples. Statistical significance was determined by one-way ANOVA followed by Tukey's multiple comparison test, P<0.01. […]

SMILES: CO/C1=C\C(C)=C\[C@@H](C)[C@@H](O)[C@@H](C)C/C(C)=C/C=C/[C@H](OC)[C@@H]([C@@H](C)[C@@H](O)[C@H](C)[C@@]2(O)C[C@@H](O)[C@H](C)[C@@H](C(C)C)O2)OC1=O [BafA1, Bafilomycin A1]
- MPL^+ (sealed) profiles/cell ([1]; HeLa^HexaKO HT-LC3B cells, starved in EBSS 90 min, 100 nM BafA1): could not be enhanced by BafA1 treatment
- MPL^+ (sealed) profiles/cell ([1]; HeLa^HexaKO, HeLa^LC3TKO and HeLa^GABATKO HT-LC3B cells, EBSS, 100 nM BafA1): no detectable further MPL^+ increase
- MPL^+ (sealed) profiles/cell ([1]; HeLa^WT HT-LC3B cells, starved in EBSS 90 min, 100 nM BafA1, vs EBSS alone): further elevated; also recorded: further increased in the presence of BafA1
- Parkin and COX-II levels (immunoblot) [2]: accumulation of Parkin and COX-II
